{"source": "ChEMBL document CHEMBL5360578", "about": "“Design, synthesis and evaluation of novel pyrrole-hydroxybutenolide hybrids as promising antiplasmodial and anti-inflammatory agents” (Eur J Med Chem, 2023)", "key": {"[1]": {"assay": "Stability in simulated intestinal fluid assessed as compound remaining at pH 6.8 measured upto 120 mins by LC-MS analysis", "assay_type": "ADME", "settings": "read-out: Stability"}, "[2]": {"assay": "AUC in fasted Swiss mouse at 100 mg/kg, po measured upto 48 hrs by LC-MS/MS analysis", "assay_type": "ADME, organism-based", "design": "dose 100 mg/kg, time < 48 hrs, route po", "settings": "in vivo"}, "[3]": {"assay": "Stability in mouse plasma assessed as compound remaining at 10 uM measured upto 120 mins by LC-MS analysis", "assay_type": "ADME, cell-free", "settings": "read-out: Stability"}, "Plasmodium falciparum [4]": {"system": "Plasmodium falciparum", "assay": "Antimalarial activity against asynchronous chloroquine-sensitive Plasmodium falciparum 3D7 assessed as parasite growth inhibition infected in erythrocytes incubated for 72 hrs by SYBR green dye based assay", "assay_type": "functional, organism-based", "settings": "3D7, 72 h"}, "Plasmodium yoelii [5]": {"system": "Plasmodium yoelii", "assay": "Antimalarial activity against chloroquine-resistant Plasmodium yoelii N67 infected in Swiss mouse assessed as parasite growth suppression at 100 mg/kg/day, po for 4 days measured on day 4 relative to control", "assay_type": "functional", "settings": "time 4 day"}, "Plasmodium yoelii [6]": {"system": "Plasmodium yoelii", "assay": "Antimalarial activity against chloroquine-resistant Plasmodium yoelii N67 infected in Swiss mouse assessed as parasite growth suppression at 100 mg/kg/day, po for 4 days measured on day 7 relative to control", "assay_type": "functional", "settings": "time 7 day"}, "[7]": {"assay": "Tmax in fasted Swiss mouse at 100 mg/kg, po measured upto 48 hrs by LC-MS/MS analysis", "assay_type": "ADME, organism-based", "settings": "in vivo"}, "[8]": {"assay": "Cmax in fasted Swiss mouse at 100 mg/kg, po measured upto 48 hrs by LC-MS/MS analysis", "assay_type": "ADME, organism-based", "design": "time < 48 hrs, dose 100 mg/kg, route po", "settings": "in vivo"}, "HEK-293T": {"system": "HEK-293T", "assay": "Antiinflammatory activity against HEK293T cells assessed as fold increase in TNFalpha-induced NF-kappaB activity at 10 uM incubated for 1 hr followed by TNFalpha treatment for 5 hrs by luciferase based assay (reference value: 17.1)", "assay_type": "functional, Homo sapiens"}, "[9]": {"assay": "MRT in fasted Swiss mouse at 100 mg/kg, po measured upto 48 hrs by LC-MS/MS analysis", "assay_type": "ADME, organism-based", "settings": "in vivo"}, "[10]": {"assay": "Volume of distribution in fasted Swiss mouse at 100 mg/kg, po measured upto 48 hrs by LC-MS/MS analysis", "assay_type": "ADME, organism-based", "settings": "in vivo"}, "THP-1 [11]": {"system": "THP-1", "assay": "Antiinflammatory activity against human THP-1 cells assessed as inhibition of LPS-induced TNFalpha level at 10 uM incubated for 12 to 14 hrs followed by compound replenishment for 1 hr and subsequent LPS treatment for 4 hrs by ELISA assay (reference value: 93.43 %)", "assay_type": "functional", "design": "scale not given: the % may be the effect or the level left", "settings": "time 17-19 hrs"}, "[12]": {"assay": "Clearance in fasted Swiss mouse at 100 mg/kg, po measured upto 48 hrs by LC-MS/MS analysis", "assay_type": "ADME, organism-based", "settings": "in vivo"}, "[13]": {"assay": "Toxicity in Swiss mouse infected with chloroquine-resistant Plasmodium yoelii N67 assessed as mean survival time at 100 mg/kg/day, po for 4 days (reference value: 7.2 +/- 1.3 day)", "assay_type": "organism-based", "settings": "in vivo, 96 h, time 4 day"}, "[14]": {"assay": "Half life in fasted Swiss mouse at 100 mg/kg, po measured upto 48 hrs by LC-MS/MS analysis", "assay_type": "ADME, organism-based", "settings": "in vivo"}, "Plasmodium falciparum [15]": {"system": "Plasmodium falciparum", "assay": "Antimalarial activity against asynchronous chloroquine-resistant Plasmodium falciparum K1 assessed as parasite growth inhibition infected in erythrocytes incubated for 72 hrs by SYBR green dye based assay", "assay_type": "functional, organism-based", "settings": "K1, 72 h"}, "[16]": {"assay": "Cytotoxicity against African green monkey Vero cells incubated for 3 days by fluorescence based assay", "assay_type": "toxicity, cell-based", "settings": "chlorocebus sabaeus, time 3 day"}, "[17]": {"assay": "Stability in simulated physiological fluid assessed as compound remaining at pH 7.4 measured upto 120 mins by LC-MS analysis", "assay_type": "physicochemical", "settings": "read-out: Stability"}, "[18]": {"assay": "Stability in simulated gastric fluid assessed as compound remaining at pH 1.2 measured upto 120 mins by LC-MS analysis", "assay_type": "ADME", "settings": "read-out: Stability"}, "THP-1 [19]": {"system": "THP-1", "assay": "Cytotoxicity against LPS-stimulated human THP-1 cells assessed as cell viability at 10 uM incubated for 12 hrs followed by LPS treatment measured after 4 hrs by PI staining based flow cytometry", "assay_type": "functional", "settings": "time 16.0 hrs"}}, "note": "Calls of active or inactive are those of the source. No cut-off for these calls is given here."}
{"smiles": "Cc1c(C(=O)Nc2ccccc2)c(-c2ccccc2)c(-c2ccc(C(C)C)cc2)n1CC1=CC(=O)OC1O", "note": "(stereo not given)", "values": [{"measurement": "remaining at 2 h", "setting": "[1]", "result": 86.2, "unit": "%"}, {"measurement": "AUC at 48 h", "setting": "[2]", "result": 1730, "unit": "ng·h/mL"}, {"measurement": "remaining at 2 h, 10 µM", "setting": "[3]", "result": 85.8, "unit": "%"}, {"measurement": "IC50", "setting": "Plasmodium falciparum [4]", "result": 0.96, "unit": "µM"}, {"measurement": "Activity", "setting": "Plasmodium yoelii [5]", "result": 77.79, "unit": "%"}, {"measurement": "Activity", "setting": "Plasmodium yoelii [6]", "result": 100, "unit": "%"}, {"measurement": "Tmax", "setting": "[7]", "result": 0.25, "unit": "h"}, {"measurement": "Cmax", "setting": "[8]", "result": 415, "unit": "ng/mL"}, {"measurement": "fold change (FC)", "setting": "HEK-293T", "result": 9.4}, {"measurement": "MRT", "setting": "[9]", "result": 5.34, "unit": "h"}, {"measurement": "Vd", "setting": "[10]", "result": 270.36, "unit": "L/kg"}, {"measurement": "Activity", "setting": "THP-1 [11]", "result": 91.44, "unit": "%"}, {"measurement": "CL/F", "setting": "[12]", "result": 966, "unit": "mL/min/kg"}, {"measurement": "MST", "setting": "[13]", "result": 23.4, "unit": "days"}, {"measurement": "half-life", "setting": "[14]", "result": 3.23, "unit": "h"}, {"measurement": "IC50", "setting": "Plasmodium falciparum [15]", "result": 1.67, "unit": "µM"}, {"measurement": "CC50 at 72 h", "setting": "[16]", "result": 126, "unit": "µM"}, {"measurement": "remaining at 2 h", "setting": "[17]", "result": 94.8, "unit": "%"}, {"measurement": "remaining at 2 h", "setting": "[18]", "result": 85.4, "unit": "%"}, {"measurement": "Activity", "setting": "THP-1 [19]", "result": "Active"}]}
